Source: US10646488B2 (Araxes Pharma LLC, priority 2016, dated 2020)

Target: T1, KRAS G12C 1-169, his-tagged protein, GDP-loaded (Homo sapiens, UniProt P01116, G12C)
T1 construct: KRAS G12C 1-169, his-tagged protein, GDP-loaded
Test: Covalent binding (% modification) to KRAS G12C by mass spectrometry
Conditions: covalent binding to KRAS G12C after a ten minute incubation period
Method: Test compounds were prepared as 10 mM stock solutions in DMSO (Fisher cat # BP-231-100). KRAS G12C 1-169, his-tagged protein, GDP-loaded was diluted to 2 μm in buffer (20 mM Hepes, 150 mM NaCl, 1 mM MgCl2). Compounds were tested for activity as follows:
Compounds were diluted to 50× final test concentration in DMSO in 96-well storage plates. Compound stock solutions were vortexed before use and observed carefully for any sign of precipitation. Dilutions were as follow: • For 100 μM final compound concentration, compounds were diluted to 5000 μM (5 μl 10 mM compound stock+5 μl DMSO and mixed well by pipetting. • For 30 μM final compound concentration, compounds were diluted to 1500 μM (3 μl 10 mM compound stock+17 μl DMSO) and mixed well by pipetting. • For 10 μM final compound concentration, compounds were diluted to 500 μM (2 μl 10 mM compound stock+38 μl DMSO) and mixed well by pipetting. 49 μl of the stock protein solution was added to each well of a 96-well PCR plate (Fisher cat #1423027). 1 μl of the diluted 50× compounds were added to appropriate wells in the PCR plate using 12-channel pipettor. Reactions were mixed carefully and thoroughly by pipetting up/down with a 200·1 multi-channel pipettor. […] 5 μl of 2% formic acid (Fisher cat # A117) in DI H2O was then added to each well followed by mixing with a pipette. The plate was then resealed with aluminum seal and stored on dry ice until analyzed as described below.
The above described assays were analyzed by mass spectrometry according to one of the following two procedures:
The MS instrument is set to positive polarity, 2 GHz resolution, and low mass (1700) mode and allowed to equilibrate for 30 minutes. The instrument is then calibrated, switched to acquisition mode and the appropriate method loaded.
After another 30 minute equilibration time, a blank batch (i.e., buffer) is run to ensure equipment is operating properly. The samples are thawed at 37° C. for 10 minutes, briefly centrifuged, and transfer to the bench top. Wells A1 and H12 are spiked with 1 uL 500 uM internal standard peptide, and the plates centrifuged at 2000×g for 5 minutes. The method is then run and masses of each individual well recorded.
The masses (for which integration data is desired) for each well are pasted into the platemap and exported from the analysis. Masses for the internal standards are exported as well. The data at 50 ppm is extracted for the +19 charge state, and identity of well A1 is assigned using the internal standard spike and integrated. Peak data is exported as a TOF list and the above steps are repeated individually, for the +20, 21, 22, 23, 24, and 25 charge states.
The masses and peak intensities of KRAS G12C protein species were measured using a Dionex RSLCnano system (Thermo Scientific) connected to a Q Exactive Plus mass spectrometer (Thermo Scientific).
[…] of sample was each loaded onto a Aeris™ 3.6 μm WIDEPORE C4 200 Å, LC Column 50×2.1 mm column maintained at 40° C. at a flow rate of 600 μl min^−1 with […] (0.1% formic acid in acetonitrile). The liquid chromatography conditions were 20% solvent B for 1 min, 20% to 60% solvent B for 1.5 min, 60% to 90% solvent for 0.5 min, 90% solvent B for 0.2 min, 90% to 20% solvent B for 0.2 min, and then equilibrated for 1.6 min before the following sample injection. The flow rate was maintained at 600 μl min^−1 throughout the sample analysis.
The mass spectrometer was operated in profile mode at a resolution of 17500, 5 microscans, using 50 msec max injection time and an AGC target of 1e6, and a full mass range from 800-1850 m/z was recorded. The HCD trapping gas was optimized for maximum sensitivity for intact proteins. The ionization method was electrospray ionization, which used a spray voltage of 4 kV, sheath gas flow set to 50 au, auxiliary gas flow set to 10 au and sweep gas flow set to 1 au. […]

SMILES | Binding %
C=CC(=O)N1[C@H](C)CN(c2nc(N3CC(N(C)C)C3)nc3c(F)c(-c4c(O)cccc4F)c(Cl)cc23)C[C@@H]1C [Compound 67, 1-((2R,6S)-4-((S)-6-chloro-2-(3-(dimethylamino)azetidin-1-yl)-8-fluoro-7-(2-fluoro-6-hydroxyphenyl)quinazolin-4-yl)-2,6-dimethyl-piperazin-1-yl) prop-2-en-1-one] | + (+ indicates binding activity up to 50%)
C=CC(=O)N1CCN(c2nc(N)nc3c(F)c(-c4cc(O)cc5ccccc45)c(Cl)cc23)[C@@H](C)C1 [Compound 12, 1-((3 S)-4-(2-Amino-6-Chloro-8-Fluoro-7-(3-Hydroxynaphthalen-1-Yl)Quinazolin-4-Yl)-3-Methylpiperazin-1-Yl)Prop-2-En-1-One] | +++ (+++ indicates binding activity greater than 90%)
C=CC(=O)N1C[C@@H](C)N(c2nc(N3CC(N(C)C)C3)nc3c(F)c(-c4c(C)ccc5cn[nH]c45)c(Cl)cc23)[C@@H](C)C1 [Compound 44, 1-((3S,5R)-4-(6-chloro-2-(3-(dimethylamino)azetidin-1-yl)-8-fluoro-7-(6-methyl-1H-indazol-7-yl)quinazolin-4-yl)-3,5-dimethyl-piperazin-1-yl) prop-2-en-1-one] | ++ (++ indicates binding activity from 50 to 90%)
C=CC(=O)N1CCN(c2nc(N3CC(N(C)C)C3)nc3c(F)c(-c4c(O)cccc4F)c(Cl)cc23)C[C@H]1C (atropisomer, axis not shown) [Compound 61, 1-((R)-4-((R)-6-chloro-2-(3-(dimethylamino)azetidin-1-yl)-8-fluoro-7-(2-fluoro-6-hydroxyphenyl)quinazolin-4-yl)-2-methyl-piperazin-1-yl) prop-2-en-1-one] | + (+ indicates binding activity up to 50%)
C=CC(=O)N1C[C@H](C)N(c2nc(OCCN(CC)CC)nc3c(F)c(-c4c(C)ccc5[nH]ncc45)c(Cl)cc23)C[C@H]1C [Compound 77, 1-((2R,5S)-4-(6-chloro-2-(2-(diethylamino)ethoxy)-8-fluoro-7-(5-methyl-1H-indazol-4-yl)quinazolin-4-yl)-2,5-dimethyl-piperazin-1-yl) prop-2-en-1-one] | +++ (+++ indicates binding activity greater than 90%)
C=CC(=O)N1C[C@H](C)N(c2nc(OCCN3CC(F)(F)C3)nc3c(F)c(-c4c(C)ccc5[nH]ncc45)c(Cl)cc23)C[C@H]1C [Compound 55, 1-((2R,5S)-4-(6-chloro-2-(2-(3,3-difluoroazetidin-1-yl)ethoxy)-8-fluoro-7-(5-methyl-1H-indazol-4-yl)quinazolin-4-yl)-2,5-dimethyl-piperazin-1-yl) prop-2-en-1-one] | +++ (+++ indicates binding activity greater than 90%)
C=CC(=O)N1C[C@H](C)N(c2nc(OC3CCN(C4CC4)CC3)nc3c(F)c(-c4c(C)ccc5[nH]ncc45)c(Cl)cc23)C[C@H]1C [Compound 78, 1-((2R,5S)-4-(6-chloro-2-((1-cyclopropyl-piperidin-4-yl)oxy)-8-fluoro-7-(5-methyl-1H-indazol-4-yl)quinazolin-4-yl)-2,5-dimethyl-piperazin-1-yl) prop-2-en-1-one] | ++ (++ indicates binding activity from 50 to 90%)

Same assay, conditions: covalent binding to KRAS G12C after a three minute incubation period

SMILES | Binding %
C=CC(=O)N1C[C@H](C)N(c2nc(N3CC(N)C3)nc3c(F)c(-c4c(C)ccc5cn[nH]c45)c(Cl)cc23)C[C@H]1C [Compound 97, 1-((2R,5S)-4-(2-(3-aminoazetidin-1-yl)-6-chloro-8-fluoro-7-(6-methyl-1H-indazol-7-yl)quinazolin-4-yl)-2,5-dimethyl-piperazin-1-yl) prop-2-en-1-one] | ++ (++ indicates binding activity from 50 to 90%)
C=CC(=O)N1C[C@H](C)N(c2nc(OCCN3CCC(F)(F)C3)nc3c(F)c(-c4c(O)ccc5ccccc45)c(Cl)cc23)C[C@H]1C [Compound 213, 1-((2R,5S)-4-(6-chloro-2-(2-(3,3-difluoropyrrolidin-1-yl)ethoxy)-8-fluoro-7-(2-hydroxynaphthalen-1-yl)quinazolin-4-yl)-2,5-dimethyl-piperazin-1-yl) prop-2-en-1-one] | + (+ indicates binding activity greater than 0% and up to 50%)
C=CC(=O)N1C[C@H](C)N(c2nc(Oc3ccnn3C)nc3c(F)c(-c4c(C)ccc5[nH]ncc45)c(Cl)cc23)C[C@H]1C [Compound 204, 1-((2R,5S)-4-(6-chloro-8-fluoro-7-(5-methyl-1H-indazol-4-yl)-2-((1-methyl-1H-pyrazol-5-yl)oxy)quinazolin-4-yl)-2,5-dimethyl-piperazin-1-yl) prop-2-en-1-one] | ++ (++ indicates binding activity from 50 to 90%)
C=CC(=O)N1C[C@H](C)N(c2nc(N3CC(N(C)C4CCC4)C3)nc3c(F)c(-c4c(O)cccc4F)c(Cl)cc23)C[C@H]1C (atropisomer, axis not shown) [Compound 139, 1-((2R,5S)-4-(6-chloro-2-(3-(cyclobutyl (methyl)amino)azetidin-1-yl)-8-fluoro-7-((R)-2-fluoro-6-hydroxyphenyl)quinazolin-4-yl)-2,5-dimethyl-piperazin-1-yl) prop-2-en-1-one] | + (+ indicates binding activity greater than 0% and up to 50%)
C=CC(=O)N1C[C@H](C)N(c2nc(N3CC(N(C)C)C3)nc3c(F)c(-c4cc(Cl)ccc4F)c(Cl)cc23)C[C@H]1C [Compound 160, 1-((2R,5S)-4-(6-chloro-7-(5-chloro-2-fluoro-phenyl)-2-(3-(dimethylamino)azetidin-1-yl)-8-fluoroquinazolin-4-yl)-2,5-dimethyl-piperazin-1-yl) prop-2-en-1-one] | ++ (++ indicates binding activity from 50 to 90%)
C=CC(=O)N1C[C@H](C)N(c2nc(OCCCN(C)C)nc3c(F)c(-c4c(C)ccc5cn[nH]c45)c(Cl)cc23)C[C@H]1C [Compound 191, 1-((2R,5S)-4-(6-chloro-2-(3-(dimethylamino)propoxy)-8-fluoro-7-(6-methyl-1H-indazol-7-yl)quinazolin-4-yl)-2,5-dimethyl-piperazin-1-yl) prop-2-en-1-one] | +++ (+++ indicates binding activity greater than 90%)
C=CC(=O)N1C[C@H](C)N(c2nc(N3CC4(CCO4)C3)nc3c(F)c(-c4c(C)ccc5[nH]ncc45)c(Cl)cc23)C[C@H]1C [Compound 193, 1-((2R,5S)-4-(6-chloro-8-fluoro-7-(5-methyl-1H-indazol-4-yl)-2-(1-oxa-6-azaspiro[3.3]heptan-6-yl)quinazolin-4-yl)-2,5-dimethyl-piperazin-1-yl) prop-2-en-1-one] | ++ (++ indicates binding activity from 50 to 90%)
C=CC(=O)N1C[C@H](C)N(c2nc(N3CC(N(C)C)C3)nc3c(F)c(-c4cc(O)cc5ccccc45)c(Cl)cc23)C[C@H]1C [Compound 147, 1-((2R,5S)-4-(6-chloro-2-(3-(dimethylamino)azetidin-1-yl)-8-fluoro-7-(3-hydroxynaphthalen-1-yl)quinazolin-4-yl)-2,5-dimethyl-piperazin-1-yl) prop-2-en-1-one] | +++ (+++ indicates binding activity greater than 90%)
C=CC(=O)N1CCN(c2nc(N3CC(C)(N(C)C)C3)nc3c(F)c(-c4c(O)cccc4F)c(Cl)cc23)C[C@H]1C [Compound 163, 1-((2R)-4-(6-chloro-2-(3-(dimethylamino)-3-methylazetidin-1-yl)-8-fluoro-7-(2-fluoro-6-hydroxyphenyl)quinazolin-4-yl)-2-methyl-piperazin-1-yl) prop-2-en-1-one] | ++ (++ indicates binding activity from 50 to 90%)
